{
  "source": "paper PMC9636434",
  "about": "“Discovery of small molecule agonists of the Relaxin Family Peptide Receptor 2” (Communications Biology, 2022)",
  "key": {"trabecular bone of femur": {"tested_on": "trabecular bone of femur", "experiment": "Micro-CT of trabecular bone in femur after 8-week oral treatment", "format": "in vivo, mouse", "set-up": "Mat.D / Tb.N / Tb.Th / Tb.Sp / Conn.D: unit not given here"}, "human LHCGR": {"target": "human LHCGR (Homo sapiens, UniProt P22888)", "sequence (P22888 27-699)": "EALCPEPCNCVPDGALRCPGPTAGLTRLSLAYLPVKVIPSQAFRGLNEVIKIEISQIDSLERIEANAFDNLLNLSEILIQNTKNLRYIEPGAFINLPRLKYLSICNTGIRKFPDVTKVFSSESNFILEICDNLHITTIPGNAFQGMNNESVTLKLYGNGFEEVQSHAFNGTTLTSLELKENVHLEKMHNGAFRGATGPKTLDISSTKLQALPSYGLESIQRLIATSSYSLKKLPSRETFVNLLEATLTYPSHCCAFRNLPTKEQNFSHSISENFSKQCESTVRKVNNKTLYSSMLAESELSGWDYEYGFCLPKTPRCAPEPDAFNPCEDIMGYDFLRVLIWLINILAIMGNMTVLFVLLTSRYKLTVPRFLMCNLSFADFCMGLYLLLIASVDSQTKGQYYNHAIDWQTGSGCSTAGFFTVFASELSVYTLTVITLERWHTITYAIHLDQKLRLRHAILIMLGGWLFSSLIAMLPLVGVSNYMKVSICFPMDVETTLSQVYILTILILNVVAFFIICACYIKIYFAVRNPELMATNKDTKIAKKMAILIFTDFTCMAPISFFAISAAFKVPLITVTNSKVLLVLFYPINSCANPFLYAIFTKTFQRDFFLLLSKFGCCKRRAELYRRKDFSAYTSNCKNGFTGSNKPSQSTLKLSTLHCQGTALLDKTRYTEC", "experiment": "HitHunter cAMP XS+ assay, cAMP Hunter cell line LHCGR", "format": "cell-based", "settings": "for RLU: replicates (1),(2)", "description": "Results are reported as raw RLU values and represent the\nmean ± SEM of 2 technical replicates."}, "[1]": {"experiment": "Pharmacokinetic study, single 30 mg/kg IP dose, plasma, liver and bone", "format": "in vivo, mouse", "settings": "IP, individual values (1)-(3)", "protocol": "The concentration of compound in plasma, liver, and long bones was detected using liquid chromatography tandem mass spectrometry (LC-MS/MS). Samples were collected after a single intraperitoneal (IP) administration at 30 mg/kg, a single intravenous (IV) administration at 3 mg/kg, a single oral (PO) administration at 10 mg/kg, and a daily PO administration for 3 consecutive days at 10 mg/kg. The compound was formulated in 75% PEG300 + 25% of 40% aq. HPBCD for IV and PO administration and in 60% Phosal + 40% PEG300 for IP administration. All tissue samples were homogenized in water at a tissue weight to water volume ratio 1:3.\nsingle dose IP administration. a Plasma, b liver and c bone profiles in female mice.\nThe actual concentration (ng/g) is the detected value (ng/mL) multiplied by 4. Drug\nvehicle is 60% Phosal : 40% PEG300. 3 mice were used per time point. Results are\nexpressed as the mean ± SEM."}, "[2]": {"settings": "femur trabecular bone, 8-week oral treatment, individual mice"}},
  "note": "Where “and” joins values, the source holds several entries; their conditions need not be identical. Identical values can stand only once.",
  "data": [
    {"smiles": "O=C1Nc2ccc(-c3cc(C(F)(F)F)cc(C(F)(F)F)c3)cc2C(=O)N2CCN(C(=O)COc3ccc(OC(F)(F)F)cc3I)C[C@@H]12", "note": "[compound 6641]", "values": [
      {"measurement": "femur trabecular parameters (micro-CT)", "setting": "trabecular bone of femur; 10 mg/kg PO 3 times per week, 8 weeks", "result": "no changes"},
      {"measurement": "BV/TV (%)", "setting": "trabecular bone of femur; [2]", "result": "4.31% and 3.06% and 3.16% and 4.83% and 2.23% and 3.75% and 3.15% and 4.04% and 1.79% and 1.82% and 3.85% and 4.53% and 2.18% and 3.86% and 3.36%"},
      {"measurement": "Conn.D", "setting": "trabecular bone of femur; [2]", "result": "30.1255 and 5.8494 and 15.74 and 19.1725 and 7.6938 and 27.3442 and 18.8338 and 25.1693 and 0 and -0.6363 and 15.6001 and 25.2137 and 3.3792 and 27.5856 and 14.5139"},
      {"measurement": "Mat.D", "setting": "trabecular bone of femur; [2]", "result": "834.454 and 848.06 and 875.94 and 870.004 and 796.836 and 823.449 and 732.807 and 765.822 and 734.474 and 726.404 and 778.428 and 781.83 and 731.073 and 806.374 and 872.538"},
      {"measurement": "Tb.N", "setting": "trabecular bone of femur; [2]", "result": "3.0955 and 3.1972 and 2.9789 and 2.9022 and 2.8329 and 3.2718 and 2.9757 and 3.3227 and 2.8446 and 3.0319 and 3.0922 and 3.1695 and 2.9848 and 3.092 and 2.9537"},
      {"measurement": "Tb.Sp", "setting": "trabecular bone of femur; [2]", "result": "0.3236 and 0.3094 and 0.3391 and 0.3456 and 0.3545 and 0.3064 and 0.3348 and 0.3029 and 0.3454 and 0.3314 and 0.3266 and 0.317 and 0.3334 and 0.3226 and 0.3354"},
      {"measurement": "Tb.Th", "setting": "trabecular bone of femur; [2]", "result": "0.0422 and 0.0404 and 0.0416 and 0.0484 and 0.033 and 0.037 and 0.035 and 0.0363 and 0.0299 and 0.0308 and 0.0384 and 0.0447 and 0.0326 and 0.0382 and 0.0437"},
      {"measurement": "cAMP response through LHCGR", "setting": "human LHCGR; Hit Hunter cAMP assay", "result": "did not result in an increase of cAMP level"},
      {"measurement": "RLU", "setting": "human LHCGR; Log [M] -4.70", "result": "1280 RLU and 1080 RLU"},
      {"measurement": "RLU", "setting": "human LHCGR; Log [M] -5.18", "result": 1000, "unit": "RLU"},
      {"measurement": "RLU", "setting": "human LHCGR; Log [M] -5.65", "result": "1080 RLU and 1000 RLU"},
      {"measurement": "RLU", "setting": "human LHCGR; Log [M] -6.13", "result": 1080, "unit": "RLU"},
      {"measurement": "RLU", "setting": "human LHCGR; Log [M] -6.61", "result": 1040, "unit": "RLU"},
      {"measurement": "RLU", "setting": "human LHCGR; Log [M] -7.08", "result": "1200 RLU and 920 RLU"},
      {"measurement": "RLU", "setting": "human LHCGR; Log [M] -7.56", "result": 1000, "unit": "RLU"},
      {"measurement": "RLU", "setting": "human LHCGR; Log [M] -8.04", "result": "960 RLU and 680 RLU"},
      {"measurement": "RLU", "setting": "human LHCGR; Log [M] -8.52", "result": 1040, "unit": "RLU"},
      {"measurement": "RLU", "setting": "human LHCGR; Log [M] -8.99", "result": "960 RLU and 1040 RLU"},
      {"measurement": "Bone concentration", "setting": "[1]; Time 0.083 h", "result": "307 ng/g and 205 ng/g and 624 ng/g"},
      {"measurement": "Liver concentration", "setting": "[1]; Time 0.083 h", "result": "1132 ng/g and 1016 ng/g"},
      {"measurement": "Plasma concentration", "setting": "[1]; Time 0.083 h", "result": "42.7 ng/mL and 44.4 ng/mL"},
      {"measurement": "Bone concentration", "setting": "[1]; Time 0.25 h", "result": "618 ng/g and 42.7 ng/g and 69 ng/g"},
      {"measurement": "Liver concentration", "setting": "[1]; Time 0.25 h", "result": "1852 ng/g and 1212 ng/g"},
      {"measurement": "Plasma concentration", "setting": "[1]; Time 0.25 h", "result": "135 ng/mL and 133 ng/mL"},
      {"measurement": "Bone concentration", "setting": "[1]; Time 0.5 h", "result": "79.8 ng/g and 96 ng/g and 167 ng/g"},
      {"measurement": "Liver concentration", "setting": "[1]; Time 0.5 h", "result": "2324 ng/g and 2784 ng/g"},
      {"measurement": "Plasma concentration", "setting": "[1]; Time 0.5 h", "result": "259 ng/mL and 440 ng/mL"},
      {"measurement": "Bone concentration", "setting": "[1]; Time 1 h", "result": "204 ng/g and 273 ng/g and 532 ng/g"},
      {"measurement": "Liver concentration", "setting": "[1]; Time 1 h", "result": "4720 ng/g and 3880 ng/g"},
      {"measurement": "Plasma concentration", "setting": "[1]; Time 1 h", "result": "507 ng/mL and 673 ng/mL"},
      {"measurement": "Bone concentration", "setting": "[1]; Time 2 h", "result": "346 ng/g and 472 ng/g"},
      {"measurement": "Liver concentration", "setting": "[1]; Time 2 h", "result": "10000 ng/g and 4520 ng/g and 5600 ng/g"},
      {"measurement": "Plasma concentration", "setting": "[1]; Time 2 h", "result": "819 ng/mL and 1140 ng/mL"},
      {"measurement": "Bone concentration", "setting": "[1]; Time 4 h", "result": "708 ng/g and 1566 ng/g and 1740 ng/g"},
      {"measurement": "Liver concentration", "setting": "[1]; Time 4 h", "result": "15760 ng/g and 16960 ng/g"},
      {"measurement": "Plasma concentration", "setting": "[1]; Time 4 h", "result": "2340 ng/mL and 4780 ng/mL and 5300 ng/mL"},
      {"measurement": "Bone concentration", "setting": "[1]; Time 8 h", "result": "3162 ng/g and 948 ng/g and 3258 ng/g"},
      {"measurement": "Liver concentration", "setting": "[1]; Time 8 h", "result": "19080 ng/g and 9320 ng/g and 24920 ng/g"}
    ]}
  ]
}
